Where two headings read alike, the source gives them in different places.
What was measured:
d(ATAT)5 = assay: Switch-on NIR-fluorescence enhancement with DNA; assay type: binding
Protocol: All the chemicals, reagents, single-stranded oligos (dA20, dT20, dG20, dC20), self-complementary oligos {d(ATAT)5, (D1)mix, Drew-AT, Calf-Thymus DNA (CT-DNA), (DM1, DM2, DM3, DM4, DM5, DM6 and DM7)}, RNA, were purchased from Sigma-Aldrich. ^1H and ^13C NMR spectra were recorded on a Bruker AV-400 MHz spectrometer with chemical shifts reported as parts per million (ppm) (in DMSO-d6, tetramethylsilane as an internal standard) at 20° C. UV-vis absorption and emission spectra were measured in quartz cuvettes of 1 cm path length. High resolution mass spectra (HRMS) were obtained on Agilent Technologies 6538 UHD Accurate-Mass Q-TOF LC/MS spectrometer. All biophysical studies (UV-vis, fluorescence and Cirular dichroism) are carried out at the concentration 0-5 μM of probe, volume=500 μL, temperature=25° C. and time of incubation=2 minutes. […]
The UV-vis absorption and emission spectra are recorded on Agilent Technologies Cary series UV-vis-NIR absorbance and Cary eclipse fluorescence spectrophotometers, respectively. […] Absorption is monitored at 260 nm with regular 5° C. intervals. Melting temperatures (Tm) of DNA samples are calculated from the first derivatives of the absorption vs. temperature curves (thermal denaturation or melting curves) obtained by monitoring at 260 nm. […]

(A-T)20 = assay: Binding constant from fluorescence titration
Protocol: (§1) To determine the binding stoichiometry of QCy-DT with Drew-AT, continuous variation method is employed, varying the ligand concentrations to generate the Job plot by fixing the total concentration of [QCy-DT+Drew-AT] at 2 μM. […] The binding constants of [QCy-DT+DNA] complexes are calculated from the fluorescence titration experiments using non-linear (single-binding mode) curve fitting analysis. […] Next, the fluorescence quantum yield of QCy-DT is estimated in the presence of AT- and GC-rich DNA duplexes (Table 3) as follows: […]

(D1)mix = assay: Binding constant from fluorescence titration; conditions: non-linear single-binding mode curve fitting
Protocol: as §1

Drew-AT = assay: Binding constant from fluorescence titration; conditions: non-linear single-binding mode curve fitting
Protocol: as §1

MCF-7 cells = assay: Photostability assay by confocal fluorescence microscopy; assay type: cell-based; conditions: 2 μM
Protocol: MCF-7 Cells are propagated on 20 mm cover slips in a 6-well plate in DMEM medium supplemented with 10% fetal bovine serum at about 37° C. in a humidified atmosphere containing 5% CO2 till 80% confluency is achieved. Cells are incubated for a duration of about 60 min with probe QCy-DT (resuspended in Mili-Q water) at 2 μM concentration in a humidified CO2 incubator at about 37° C. Following treatment, the photostability of QCy-DT is measured by continuous scanning using OLYMPUS FV1000 confocal fluorescence microscope, under 568 nm line of an Argon ion laser for different time durations of about 10 sec, 120 sec and 300 sec. Olympus Fluoview software is used to quantitatively investigate the intensity of signals of QCy-DT at zero time points and after photo bleaching. The data is plotted with mean and standard error.

P. falciparum = assay: IC50 determination in malaria parasites; assay type: cell-based, Plasmodium falciparum; conditions: for IC50: Plasmodium falciparum
Protocol: P. falciparum strain 3D7 is cultured. Briefly, malaria parasites are cultured in human erythrocytes in T75 flasks with RPMI 1640 (Gibco) supplemented with 10 μg/mL gentamicin (Sigma), 50 μg/mL ampicillin, 0.2% NaHCO3 (Sigma), 0.5% albumax (Invitrogen) and Hypoxanthine (27 mg/L). The culture is maintained under standard conditions (37° C. in 90% nitrogen, 5% CO2, and 5% O2). For synchronization of the parasites, ring-staged parasites are treated with 5% sorbitol at 37° C. for about 5-10 min, followed by washing with pre-warmed incomplete medium twice, and placed back in complete medium. QCy-DT probe (resuspended in Mili-Q water) is added to parasites (25±2 hpi) at a final concentration of 0.5 μM and the parasites are incubated for 30 min at 37° C. Following treatment fluorescence imaging of the parasites is performed using Carl Zeiss AXIO Imager Z1 and the software used for image capturing was AxioVision Rel. 4.8. To determine the IC50 value of QCy-DT against P. falciparum, parasites are synchronized in ring stage (˜12±2 h) and parasitemia is maintained at ˜1%, followed by treatment with 0, 0.5, 1, 2 and 4 μM of QCy-DT at early trophozoite stage (˜20±2 h). After about 40 hours of the QCy-DT treatment, Geimsa stained slides are prepared, and parasitemia is counted. At least six homogenous microscopic fields are counted for each treatment, and each experiment is done in triplicates. The graphs are plotted for the percentage of parasitemia (at 0 time point and at 40 hours after incubation with QCy-DT) against QCy-DT concentration, with mean and standard error.

- binding affinity Ka ((A-T)20; non-linear single-binding mode curve fitting): 2.9e+06 M⁻¹
- binding affinity for (A-T)20 higher than for Drew-AT ((A-T)20; ratio of Ka): 2 fold
- binding affinity Ka ((D1)mix): 430000 M⁻¹
- binding affinity Ka (Drew-AT): 1.5e+06 M⁻¹
- remainder fluorescence intensity (MCF-7 cells; MCF-7, 120-second argon ion laser excitation at 568 nm): ~80%
- fluorescent signal intensity (MCF-7 cells; MCF-7, 300 sec excitation at 568 nm): ~50%
- IC50 (P. falciparum; against malarial parasites, as printed in the description, read-out: inhibitory concentration (IC50)): < 4 µM
- IC50 (P. falciparum; early trophozoite stage, 40 h treatment, parasitemia count, read-out: IC50): < 4 µM
Structure (SMILES): C[n+]1c(/C=C/c2ccc(O)c(/C=C/c3sc4ccccc4[n+]3C)c2)sc2ccccc21 [QCy-DT, quinone cyanine-dithiazole]
- fluorescence enhancement (d(ATAT)5): ~54 fold
- parasite stage progression (P. falciparum; 8 μM): arrested in the trophozoite stage

Reference: US10683273B2, “Compounds as DNA probes, methods and applications thereof” (JAWAHARLAL NEHRU CENTRE FOR ADVANCED SCIENTIFIC RESEARCH, priority 2015, dated 2020)
